Measurements published in PubChem BioAssay AID651829 (Broad Institute, 2012).
Blank lines part the entries; values can stand above or below the molecule they belong to. Calls of active or inactive are those of the source.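 The calls were made as follows: active = max delta Tm melting temperature shift above 1 degree C at some tested dose; inactive = the rest.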

Target: Kelch-like ECH-associated protein 1 (Homo sapiens) (UniProt Q14145)
Experiment: thermal stabilisation of Keap1 Kelch domain – biophysical, thermal shift, RT-PCR instrument, dry powder, orthogonal assay for Keap1-Nrf2 interaction inhibitor project, dose response (AID 651829)
Conditions: Recombinant Keap1 Kelch domain, Sypro Orange, top dose 38 µM, hits give high values

Sequence of Kelch-like ECH-associated protein 1 (Homo sapiens) (Q14145 whole entry, looked up, the tested form may be a part): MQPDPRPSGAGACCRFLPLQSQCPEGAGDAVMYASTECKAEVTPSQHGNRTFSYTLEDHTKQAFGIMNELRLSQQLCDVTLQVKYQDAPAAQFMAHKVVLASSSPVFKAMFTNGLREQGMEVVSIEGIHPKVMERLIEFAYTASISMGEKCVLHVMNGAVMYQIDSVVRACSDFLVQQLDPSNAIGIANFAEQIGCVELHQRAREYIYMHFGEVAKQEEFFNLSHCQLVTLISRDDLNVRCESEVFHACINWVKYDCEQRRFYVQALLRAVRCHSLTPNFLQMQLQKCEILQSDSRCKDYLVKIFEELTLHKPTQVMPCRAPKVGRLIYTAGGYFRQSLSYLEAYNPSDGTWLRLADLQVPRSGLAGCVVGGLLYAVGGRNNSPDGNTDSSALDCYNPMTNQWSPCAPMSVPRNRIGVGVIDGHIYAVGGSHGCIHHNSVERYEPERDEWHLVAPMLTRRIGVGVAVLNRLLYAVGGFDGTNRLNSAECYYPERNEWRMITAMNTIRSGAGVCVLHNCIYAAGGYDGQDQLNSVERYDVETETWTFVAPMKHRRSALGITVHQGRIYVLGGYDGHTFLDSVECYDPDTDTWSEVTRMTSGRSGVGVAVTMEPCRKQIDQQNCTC

max delta Tm (at 0.16 µM): -0.041 °C (inactive)
Structure (SMILES): O=C(O)[C@H]1CCCC[C@H]1C(=O)N1CCc2ccccc2C1 (racemic)

max delta Tm (at 0.6 µM): -0.035 °C (inactive)
Structure (SMILES): COC(=O)[C@@H]1CCCC[C@@H]1C(=O)N1CCc2ccccc2[C@@H]1CN1C(=O)c2ccccc2C1=O

max delta Tm (at 1.2 µM): -0.003 °C (inactive)
Structure (SMILES): O=C(O)C1CCCCC1C(=O)N1CCc2ccccc2C1c1ccccc1 (centres undefined)

max delta Tm (at 0.3 µM): 0.22 °C (inactive)
Structure (SMILES): Cc1ccc(S(=O)(=O)NNc2nc(NCC(N)=O)nc3ccccc23)cc1
